The IC50 is the concentration that gives 50% inhibition. High values mean weaker potency, low ones greater potency.

One assay deals with Human thrombin (Homo sapiens (Human), UniProt P00734). Nature of the assay: Thrombin protease activity inhibition assay (chromogenic substrate S-2238). It counts as biochemical.
Conditions: not given
As for the experimental part: The thrombin activity reported herein (e.g., Table A) was obtained as follows. […] Thrombin was assayed in buffer containing 0.05 M Tris (pH 7.4), 0.015 M NaCl and 0.01% PEG-8000. The final concentration of enzyme used was 3 nM thrombin. […] All assays were performed in 96-well microtiter plates at room temperature (RT). […] Inhibitor IC50 values were determined by adding test compound as ten point, three-fold serial dilutions in buffer solution, as known in the art. The plate was read at 10 minutes after substrate addition. The IC50 was calculated by plotting the percent (%) inhibition against compound concentration and fitting the data to a constrained four parameter sigmoidal curve, as known in the art.
Consider `Nc1cc(-c2ccc[nH]c2=O)n[nH]1` [Cmpd 1, 3-(5-amino-1H-pyrazol-3-yl)-1,2-dihydropyridin-2-one], for which the IC50 is greater than 100000 nM.

Still in this assay, the particulars now being: 3 nM thrombin, 125 μM S-2238, 10 min pre-incubation, RT.
Regarding `O=C(c1ccoc1)n1nc(-c2cccn(Cc3ccncc3)c2=O)cc1NCc1ccc(Cl)s1` [Cmpd 6, 3-(5-[(5-chlorothiophen-2-yl)methyl]amino-1-[(furan-3-yl)carbonyl]-1H-pyrazol-3-yl)-1-(pyridin-4-ylmethyl)-1,2-dihydropyridin-2-one], the IC50 is less than 100 nM. Same read-out and setting: the same measure for `CC(C)(C)C(=O)n1nc(-c2cccn(Cc3ccccc3Cl)c2=O)cc1NCc1ccc(Cl)s1` [Cmpd 27, 1-[(2-chlorophenyl)methyl]-3-(5-[(5-chlorothiophen-2-yl)methyl]amino-1-(2,2-dimethylpropanoyl)-1H-pyrazol-3-yl)-1,2-dihydropyridin-2-one]: less than 100 nM; for `COc1ccccc1C(=O)n1nc(-c2cccn(Cc3ccccc3Cl)c2=O)cc1NCc1ccc(Cl)s1` [Cmpd 28, 1-[(2-chlorophenyl)methyl]-3-(5-[(5-chlorothiophen-2-yl)methyl]amino-1-[(2-methoxyphenyl)carbonyl]-1H-pyrazol-3-yl)-1,2-dihydropyridin-2-one]: less than 100 nM. Still for that read-out and setting: the same measure for `O=C(c1ccoc1)n1nc(-c2cccn(Cc3ccccc3Cl)c2=O)cc1NCc1ccc(Cl)s1` [Cmpd 29, 1-[(2-chlorophenyl)methyl]-3-(5-[(5-chlorothiophen-2-yl)methyl]amino-1-[(furan-3-yl)carbonyl]-1H-pyrazol-3-yl)-1,2-dihydropyridin-2-one]: less than 100 nM; for `O=c1c(-c2cc(NCc3ccc(Cl)s3)[nH]n2)cccn1Cc1ccccc1Cl` [Cmpd 30, 1-[(2-chlorophenyl)methyl]-3-(5-[(5-chlorothiophen-2-yl)methyl]amino-1H-pyrazol-3-yl)-1,2-dihydropyridin-2-one]: 10000 to 100000 nM; for `CC(C)(C)C(=O)n1nc(-c2cccn(Cc3cccc(Cl)c3)c2=O)cc1NCc1ccc(Cl)s1` [Cmpd 31, 1-[(3-chlorophenyl)methyl]-3-(5-[(5-chlorothiophen-2-yl)methyl]amino-1-(2,2-dimethylpropanoyl)-1H-pyrazol-3-yl)-1,2-dihydropyridin-2-one]: less than 100 nM. Same read-out and setting: next, `COc1ccccc1C(=O)n1nc(-c2cccn(Cc3cccc(Cl)c3)c2=O)cc1NCc1ccc(Cl)s1` [Cmpd 32, 1-[(3-chlorophenyl)methyl]-3-(5-[(5-chlorothiophen-2-yl)methyl]amino-1-[(2-methoxyphenyl)carbonyl]-1H-pyrazol-3-yl)-1,2-dihydropyridin-2-one]: less than 100 nM. Compound `O=C(c1ccoc1)n1nc(-c2cccn(Cc3cccc(Cl)c3)c2=O)cc1NCc1ccc(Cl)s1` [Cmpd 33, 1-[(3-chlorophenyl)methyl]-3-(5-[(5-chlorothiophen-2-yl)methyl]amino-1-[(furan-3-yl)carbonyl]-1H-pyrazol-3-yl)-1,2-dihydropyridin-2-one] returned an IC50 of less than 100 nM. On the same count and under the same terms, the same measure for `O=c1c(-c2cc(NCc3ccc(Cl)s3)[nH]n2)cccn1Cc1cccc(Cl)c1` [Cmpd 34, 1-[(3-chlorophenyl)methyl]-3-(5-[(5-chlorothiophen-2-yl)methyl]amino-1H-pyrazol-3-yl)-1,2-dihydropyridin-2-one]: 1000 to 10000 nM. In turn, `CC(C)(C)C(=O)n1nc(-c2cccn(Cc3ccc(Cl)cc3)c2=O)cc1NCc1ccc(Cl)s1` [Cmpd 35, 1-[(4-chlorophenyl)methyl]-3-(5-[(5-chlorothiophen-2-yl)methyl]amino-1-(2,2-dimethylpropanoyl)-1H-pyrazol-3-yl)-1,2-dihydropyridin-2-one] had an IC50 of less than 100 nM. The same measure, in the same setting: the same measure for `COc1ccccc1C(=O)n1nc(-c2cccn(Cc3ccc(Cl)cc3)c2=O)cc1NCc1ccc(Cl)s1` [Cmpd 36, 1-[(4-chlorophenyl)methyl]-3-(5-[(5-chlorothiophen-2-yl)methyl]amino-1-[(2-methoxyphenyl)carbonyl]-1H-pyrazol-3-yl)-1,2-dihydropyridin-2-one]: less than 100 nM; for `O=C(c1ccoc1)n1nc(-c2cccn(Cc3ccc(Cl)cc3)c2=O)cc1NCc1ccc(Cl)s1` [Cmpd 37, 1-[(4-chlorophenyl)methyl]-3-(5-[(5-chlorothiophen-2-yl)methyl]amino-1-[(furan-3-yl)carbonyl]-1H-pyrazol-3-yl)-1,2-dihydropyridin-2-one]: less than 100 nM.

Compound `O=c1c(-c2cc(NCc3ccc(Cl)s3)[nH]n2)cccn1Cc1ccc(Cl)cc1` [Cmpd 38, 1-[(4-chlorophenyl)methyl]-3-(5-[(5-chlorothiophen-2-yl)methyl]amino-1H-pyrazol-3-yl)-1,2-dihydropyridin-2-one] returned an IC50 greater than 100000 nM. Still for that read-out and setting: the same measure for `CC(C)(C)C(=O)n1nc(-c2cccn(Cc3ccc(Cl)s3)c2=O)cc1NCc1ccc(Cl)s1` [Cmpd 39, 1-[(5-chlorothiophen-2-yl)methyl]-3-(5-[(5-chlorothiophen-2-yl)methyl]amino-1-(2,2-dimethylpropanoyl)-1H-pyrazol-3-yl)-1,2-dihydropyridin-2-one]: less than 100 nM.

Compound `COc1ccccc1C(=O)n1nc(-c2cccn(Cc3ccc(Cl)s3)c2=O)cc1NCc1ccc(Cl)s1` [Cmpd 40, 1-[(5-chlorothiophen-2-yl)methyl]-3-(5-[(5-chlorothiophen-2-yl)methyl]amino-1-[(2-methoxyphenyl)carbonyl]-1H-pyrazol-3-yl)-1,2-dihydropyridin-2-one] yielded an IC50 of less than 100 nM. Still for that read-out and setting: the same measure for `O=C(c1ccoc1)n1nc(-c2cccn(Cc3ccc(Cl)s3)c2=O)cc1NCc1ccc(Cl)s1` [Cmpd 41, 1-[(5-chlorothiophen-2-yl)methyl]-3-(5-[(5-chlorothiophen-2-yl)methyl]amino-1-[(furan-3-yl)carbonyl]-1H-pyrazol-3-yl)-1,2-dihydropyridin-2-one]: less than 100 nM; for `O=c1c(-c2cc(NCc3ccc(Cl)s3)[nH]n2)cccn1Cc1ccc(Cl)s1` [Cmpd 42, 1-[(5-chlorothiophen-2-yl)methyl]-3-(5-[(5-chlorothiophen-2-yl)methyl]amino-1H-pyrazol-3-yl)-1,2-dihydropyridin-2-one]: greater than 100000 nM. Still for that read-out and setting: the same measure for `CC(C)(C)C(=O)n1nc(-c2cccn(Cc3ccccc3)c2=O)cc1NCc1ccc(Cl)s1` [Cmpd 43, 1-benzyl-3-(5-[(5-chlorothiophen-2-yl)methyl]amino-1-(2,2-dimethylpropanoyl)-1H-pyrazol-3-yl)-1,2-dihydropyridin-2-one]: less than 100 nM; for `COCC(C)(C)C(=O)n1nc(-c2cccn(Cc3ccccc3)c2=O)cc1NCc1ccc(Cl)s1` [Cmpd 44, 1-benzyl-3-(5-[(5-chlorothiophen-2-yl)methyl]amino-1-(3-methoxy-2,2-dimethylpropanoyl)-1H-pyrazol-3-yl)-1,2-dihydropyridin-2-one]: less than 100 nM. Compound `O=C(c1cccc2c1OCCO2)n1nc(-c2cccn(Cc3ccccc3)c2=O)cc1NCc1ccc(Cl)s1` [Cmpd 45, 1-benzyl-3-(5-[(5-chlorothiophen-2-yl)methyl]amino-1-[(2,3-dihydro-1,4-benzodioxin-5-yl)carbonyl]-1H-pyrazol-3-yl)-1,2-dihydropyridin-2-one] displayed an IC50 of less than 100 nM.

`COc1ccccc1C(=O)n1nc(-c2cccn(Cc3ccccc3)c2=O)cc1NCc1ccc(Cl)s1` [Cmpd 47, 1-benzyl-3-(5-[(5-chlorothiophen-2-yl)methyl]amino-1-[(2-methoxyphenyl)carbonyl]-1H-pyrazol-3-yl)-1,2-dihydropyridin-2-one] gave an IC50 of less than 100 nM. In turn, `O=c1c(-c2cc(NCc3ccc(Cl)s3)[nH]n2)cccn1Cc1ccccc1` [Cmpd 54, 1-benzyl-3-(5-[(5-chlorothiophen-2-yl)methyl]amino-1H-pyrazol-3-yl)-1,2-dihydropyridin-2-one] showed an IC50 of 1000 to 10000 nM. The same measure, in the same setting: next, `O=C(c1ccccc1Cl)n1nc(-c2cccn(Cc3ccccc3)c2=O)cc1NCc1ccc(Cl)s1` [Cmpd 55, 1-benzyl-3-1-[(2-chlorophenyl)carbonyl]-5-[(5-chlorothiophen-2-yl)methyl]amino-1H-pyrazol-3-yl-1,2-dihydropyridin-2-one]: less than 100 nM.

Turning to `CC(C)(C)C(=O)n1nc(-c2cccn(CC#N)c2=O)cc1NCc1ccc(Cl)s1` [Cmpd 56, 2-[3-(5-[(5-chlorothiophen-2-yl)methyl]amino-1-(2,2-dimethylpropanoyl)-1H-pyrazol-3-yl)-2-oxo-1,2-dihydropyridin-1-yl]acetonitrile], the IC50 was less than 100 nM.

`COc1ccccc1C(=O)n1nc(-c2cccn(CC#N)c2=O)cc1NCc1ccc(Cl)s1` [Cmpd 57, 2-[3-(5-[(5-chlorothiophen-2-yl)methyl]amino-1-[(2-methoxyphenyl)carbonyl]-1H-pyrazol-3-yl)-2-oxo-1,2-dihydropyridin-1-yl]acetonitrile] gave an IC50 of less than 100 nM.

On to `N#CCn1cccc(-c2cc(NCc3ccc(Cl)s3)n(C(=O)c3ccoc3)n2)c1=O` [Cmpd 58, 2-[3-(5-[(5-chlorothiophen-2-yl)methyl]amino-1-[(furan-3-yl)carbonyl]-1H-pyrazol-3-yl)-2-oxo-1,2-dihydropyridin-1-yl]acetonitrile], for which the IC50 is less than 100 nM. The same measure, in the same setting: the same measure for `N#CCn1cccc(-c2cc(NCc3ccc(Cl)s3)[nH]n2)c1=O` [Cmpd 60, 2-[3-(5-[(5-chlorothiophen-2-yl)methyl]amino-1H-pyrazol-3-yl)-2-oxo-1,2-dihydropyridin-1-yl]acetonitrile]: 10000 to 100000 nM; for `O=C(c1ccccc1)n1nc(-c2ccc[nH]c2=O)cc1NCc1ccc(Cl)s1` [Cmpd 61, 3-(1-benzoyl-5-[(5-chlorothiophen-2-yl)methyl]amino-1H-pyrazol-3-yl)-1,2-dihydropyridin-2-one]: less than 100 nM; for `O=C(c1ccccc1)n1nc(-c2cccn(Cc3ccco3)c2=O)cc1NCc1ccc(Cl)s1` [Cmpd 63, 3-(1-benzoyl-5-[(5-chlorothiophen-2-yl)methyl]amino-1H-pyrazol-3-yl)-1-(furan-2-ylmethyl)-1,2-dihydropyridin-2-one]: less than 100 nM.

Source of the values: patent publication US9687479B2, “Multisubstituted aromatic compounds as serine protease inhibitors” (VERSEON CORPORATION, priority 2013, dated 2017).
